# Results from US6894185B2, “Substituted chiral allosteric hemoglobin modifiers” (Allós Therapeutics, Inc., priority 1999, dated 2005).
# Where “and” joins values, the source holds several entries; their conditions need not be identical. Identical values can stand only once.
# How the values were obtained:
# [1] = target: T1, hemoglobin (Homo sapiens, UniProt P68871+P69905); test: In vitro whole blood studies (multi-point tonometry and blood gas analysis); assay type: cell-based; conditions: for Whole Blood Δp50 mm Hg: Table II; for ΔP50 ± S.D. (P50 effector − P50control) / P50e (P50 value in the presence of the effector): Table VI, 2.5 mM Hb, 5.0 mM effector; for P50e (P50 value in the presence of the effector): single runs, DMSO stock
# T1 construct: The whole blood samples were collected in heparinized tubes from healthy volunteers; from tissue; host or cells: human whole blood (heparinized) from healthy volunteers
# T1 sequence (P69905 2-142 limits assumed): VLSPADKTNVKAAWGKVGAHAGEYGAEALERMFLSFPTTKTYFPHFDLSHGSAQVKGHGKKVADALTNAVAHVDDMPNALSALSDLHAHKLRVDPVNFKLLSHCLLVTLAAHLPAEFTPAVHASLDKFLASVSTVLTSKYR
# T1 sequence (P68871 2-147 limits assumed): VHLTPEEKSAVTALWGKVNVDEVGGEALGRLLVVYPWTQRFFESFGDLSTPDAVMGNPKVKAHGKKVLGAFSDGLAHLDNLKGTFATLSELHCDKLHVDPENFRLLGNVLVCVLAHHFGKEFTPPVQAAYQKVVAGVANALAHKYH
# Protocol: (§1) Structure-allosteric activity relationships were determined from the synthetic chiral effectors comparing the shift in the oxygen binding curve of Hb solutions using a Hemox-Analyzer. In vitro biological activity testing in the presence of plasma proteins was also performed on selected enantiomers and racemates (multi-point tonometry and blood gas analysis) to screen for candidates with potential clinical use. SAR studies compared the degree in shift in P50 values, i.e., the partial pressure of molecular oxygen necessary to half-saturate hemoglobin. An effector that decreases Hb oxygen affinity increases the P50 value relative to the control. Thus, the activity or potency of each analog could be expressed by the ratio P50 (effector)/P50(control). Tables and II and III summarize the p50 values obtained using human whole blood, while Tables IV and V summarize the P50 and the Hill coefficient values (n50) at half-saturation obtained using Hemox-analyzer. The slope of the log of the oxygen binding curves is known as the Hill coefficient. The Hill coefficient measures the degree of cooperativity in binding for an allosteric protein, the normal range for human blood is 2.7-3.2. Table VI presents the results from the whole blood studies given as a ΔP50 and Hill coefficient (n50) values for the enantiomers and racemates.
# The whole blood samples were collected in heparinized tubes from healthy volunteers and stored over ice. The sodium salts of the compounds were prepared as described earlier. A 200 mM stock solution of the effector was prepared in DMSO. A 5.0 mM test solution was prepared from 50 μL of the 200 mM test solution and 1950 μL of whole blood. The blood samples were incubated in IL 237 tonometers (Instrumentation Laboratories, Inc. Lexington, Mass.) for approximately 10-12 min at 37° C. and equilibrated at three separate concentrations of O2 (20%, 40%, and 60%). After equilibration at each concentration of O2, a sample was removed via syringe and aspirated into a IL 1420 Automated Blood Gas Analyzer (Instrumentation Laboratories, Inc. Lexington, Mass.) and a IL 482 and IL 682 Co-oximeter (Instrumentation Laboratories, Inc. Lexington, Mass.) to determine the pH, pCO2, pO2 and the hemoglobin oxygen saturation values (sO2), respectively. The measured values for pO2 and sO2 at each oxygen saturation level were then subjected to a non-linear regression analysis using the program Scientist (Micromath, Salt Lake City, Utah) to calculate the P50 and Hill coefficient values.
# [2] = target: T2, purified stripped human adult hemoglobin (Homo sapiens, UniProt P68871+P69905); test: Hemoglobin solution oxygen equilibrium studies (HEMOX-analyzer); assay type: biochemical; conditions: for n50 (Hill coefficient at 50% saturation): n50 control 2.7; for P50e/P50c: ratio to P50 control with no effector (5.0 mmHg)
# T2 construct: using purified stripped human adult hemoglobin as described previously; from tissue
# T2 sequence (P69905 2-142 limits assumed): as the sequence (P69905 2-142 limits assumed) above
# T2 sequence (P68871 2-147 limits assumed): as the sequence (P68871 2-147 limits assumed) above
# Protocol: as §1, with “Tables and II and III summarize the p50 values obtained using human whole blood, while Tables IV and V summarize the P50 and the Hill coefficient values (n50) at half-saturation obtained using Hemox-analyzer.” left out, “2.7-3.2.” for “2.7-3.2. Table VI presents the results from the whole blood studies given as a ΔP50 and Hill coefficient (n50) values for the enantiomers and racemates.”
# The effectors were prepared as 10 mM stock solutions in 100 mM NaCl bis-Tris buffer, pH 7.2. After the addition of an excess of NaHCO3, the solution was warmed to 60° C. and stirred for several hours. The solutions were back titrated carefully to pH 7.2 at 25° C. prior to use. Oxygen equilibrium measurements were performed with the HEMOX-analyzer (TCS Medical products, Southampton, Pa.) using purified stripped human adult hemoglobin as described previously. 4 mL of buffer, 100 mM NaCl, 50 mM bis-Tris at pH 7.2, is added to a cuvette in the HEMOX, followed by 200 μL of the 10 mM effector stock solution. Hemoglobin is then added to achieve a final Hb concentration of […] on heme basis. Catalase (20 μg/mL) and 50 mM EDTA were added to limit oxidation of the hemes. […] The saturation of hemoglobin was determined spectrophotometrically with a dual wavelength spectrophotometer (577 nm and 586.2 nm). The solution was stirred constantly during the 45-60 min recordings. The P50 and n50 values were calculated by linear regression analysis from data points comprised between 40 and 60% oxygen saturation.
# [3] = target: T2, purified stripped human adult hemoglobin; test: as above; assay type: biochemical; conditions: 0.5 mM effector, 100 mM bis-Tris buffer, pH 7.2
# [4] = Table IV, 0.5 mM effector, pH 7.2
# [5] = Table V resolved enantiomers, 0.5 mM effector, pH 7.2
SMILES,Whole Blood Δp50 mm Hg [1] [mm Hg],ΔP50 ± S.D. (P50 effector − P50control) [1] [mmHg],P50e (P50 value in the presence of the effector) [1],"n50 (Hill coefficient at 50% saturation) [2, 4]","P50e/P50c [2, 4]",P50e (oxygen pressure at which Hb is 50% saturated with oxygen in the presence of the effector) ([3]; Table IV) [mmHg],"n50 (Hill coefficient at 50% saturation) [2, 5]",P50e/P50c ([2]; Table V resolved enantiomers),P50e (oxygen pressure at which Hb is 50% saturated with oxygen in the presence of the effector) ([3]; Table V resolved enantiomers) [mmHg]
"Cc1cc(C)cc(NC(=O)Cc2ccc(OC3(C(=O)O)CCCC3C)cc2)c1 (racemic) [Compound 1, 1-[4-[[(3,5-dimethylanilino)carbonyl]methyl]phenoxy]-2-methylcyclopentane carboxylic acid]",45.4,40.1 ± 0.9,66 mmHg and 67.2 mmHg,2.3,4.3,22,,,
"CCC(Oc1ccc(CC(=O)Nc2cc(C)cc(C)c2)cc1)C(=O)O (racemic) [Compound 20, 2-[4-[[(3,5-dimethylanilino)carbonyl]methyl]phenoxy]-butanoic acid]",,,,2.7,2.6,13,,,
"Cc1cc(C)cc(NC(=O)Cc2ccc(OC(C)C(=O)O)cc2)c1 (single isomer, unassigned; (+)) [(+) 18, (+)-2-[4-[[(3,5-dimethylanilino)carbonyl]methyl]phenoxy]-propionic acid]",,20.7 ± 0.7,47.4 mmHg and 48.7 mmHg,,,,2.6,2,9.8
"CCC(Oc1ccc(CC(=O)Nc2cc(C)cc(C)c2)cc1)C(=O)O (single isomer, unassigned; (+)) [(+) 20]",,,,,,,2.7,3.6,18
"Cc1cc(C)cc(NC(=O)Cc2ccc(OC(C)C(=O)O)cc2)c1 (single isomer, unassigned; (-)) [(−) 18, (−)-2-[4-[[(3,5-dimethylanilino)carbonyl]methyl]phenoxy]-propionic acid]",,12.3 ± 0.6,39.7 mmHg and 40.5 mmHg,,,,2.5,1.3,6.6
"CCC(Oc1ccc(CC(=O)Nc2cc(C)cc(C)c2)cc1)C(=O)O (single isomer, unassigned; (-)) [(−) 20]",,,,,,,2.8,2,9.8
"Cc1cc(C)cc(NC(=O)Cc2ccc(OC3(C(=O)O)CCOC3C)cc2)c1 (stereo not shown) [Compound 2, 3-[4-[[(3,5-dimethylanifino)carbonyl]methyl]phenoxy]-2-methyltetrahydro-3-furan carboxylic acid]",15.2,,,2.4,1.5,7.6,,,
Cc1cc(C)cc(NC(=O)Cc2ccc(OC3(C(=O)O)CCC(C)C3)cc2)c1 (stereo not shown) [Compound 3],20.3,,,2.5,2.6,13,,,
"Cc1cc(C)cc(NC(=O)Cc2ccc(OC3(C(=O)O)CCOCC3)cc2)c1 [Compound 4, 4-[4-[[(3,5-dimethylanilino)carbonyl]methyl]phenoxy]tetrahydro-2H-4-pyrancarboxylic acid]",17.8,,,2.4,1.5,7.6,,,

# Continued, in another order:
Whole Blood Δp50 mm Hg [1] [mm Hg],ΔP50 ± S.D. (P50 effector − P50control) [1] [mmHg],P50e (P50 value in the presence of the effector) [1],"n50 (Hill coefficient at 50% saturation) [2, 4]","P50e/P50c [2, 4]",P50e (oxygen pressure at which Hb is 50% saturated with oxygen in the presence of the effector) ([3]; Table IV) [mmHg],SMILES,"n50 (Hill coefficient at 50% saturation) [2, 5]",P50e/P50c ([2]; Table V resolved enantiomers),P50e (oxygen pressure at which Hb is 50% saturated with oxygen in the presence of the effector) ([3]; Table V resolved enantiomers) [mmHg]
,18.2 ± 2.6,47.2 mmHg and 43.5 mmHg,2.6,1.9,9.3,"Cc1cc(C)cc(NC(=O)Cc2ccc(OC(C)C(=O)O)cc2)c1 (racemic) [Compound 18, 2-[4-[[(3,5-dimethylanilino)carbonyl]methyl]phenoxy]-propionic acid]",,,
12.7,,,2.6,2.5,13,CC1CCC(Oc2ccc(CC(=O)Nc3ccc4c(c3)CCC4)cc2)(C(=O)O)C1 (stereo not shown) [Compound 5],,,
25.6,,,2.7,2.3,12,"CCCC(C)(Oc1ccc(CC(=O)Nc2cc(C)cc(C)c2)cc1)C(=O)O (stereo not shown) [Compound 6, 2-[4-[[(3,5-dimethylanilino)carbonyl]methyl]phenoxy]-2-methylpentanoic acid]",,,
25.0,,,2.6,2.8,14,CC1CCCC1(Oc1ccc(CC(=O)Nc2ccc3c(c2)CCC3)cc1)C(=O)O (stereo not shown) [Compound 7],,,
25,,,2.4,4.4,22,"Cc1cc(Cl)cc(NC(=O)Cc2ccc(OC3(C(=O)O)CCCC3C)cc2)c1 (stereo not shown) [Compound 8, 1-[4-[[(3-chloro-5-methylanilino)carbonyl]methyl]phenoxy]-2-methylcyclopentane carboxylic acid]",,,
,,,2.5,1.2,5.9,"Cc1cc(C)cc(NC(=O)Cc2ccc(OC(F)C(=O)O)cc2)c1 (stereo not shown) [Compound 19, 2-[4-[[3,5-dimethylanilino)carbonyl]methyl]phenoxy-2-fluoroacetic acid]",,,
,,,2.4,2.7,13,"CCC(C)(Oc1ccc(CC(=O)Nc2cc(C)cc(C)c2)cc1)C(=O)O (stereo not shown) [Compound 21, 2-[4-[[(3,5-dimethylanilino)carbonyl]methyl]phenoxy]-2-methylbutanoic acid]",,,
,,,2.4,4.4,21,"Cc1cc(Cl)cc(NC(=O)Cc2ccc(OC(C)(C)C(=O)O)cc2)c1 [KDD86, reference compound]",,,
,,,2.6,3,15,"CC(C)(Oc1ccc(CC(=O)Nc2ccc3c(c2)CCC3)cc1)C(=O)O [RSR46, reference compound]",,,
